The text below walks through data of ChEMBL document CHEMBL5303304, “EUbOPEN Chemogenomics Library - IncuCyte” (2023).

Where “and” joins values, the source holds several entries; their conditions need not be identical. Identical values can stand only once.

Holding throughout (format): toxicity, cell-based
One data set concerns HEK-293T. Briefly: Incucyte cell viability with HEK293T. The following applies: human, 10 µM, compound concentration 10 uM.
A further data set deals with Fibroblast. The data set can be described thus: Incucyte cell viability with human fibroblast. The conditions noted are these: 10 µM, compound concentration 10 uM.
The subject of the next data set is U2OS. The data set can be described thus: Incucyte cell viability with U2OS. The conditions noted are these: human, 10 µM, compound concentration 10 uM.
Further: unitless GR value; below 1 slowed growth and below 0 cell loss.

For `COc1cc(NC(=O)c2ccc(-c3ccc(Cl)cc3)o2)cc(OC)c1`, the “Growth Rate” value is recorded as 0.52 with HEK-293T (0 h, replicate number 2); 0.31 with HEK-293T (6 h, replicate number 1); 0.51 with Fibroblast (0 h, replicate number 1); -1 in the data set on Fibroblast (6 h, replicate number 2); 0.03 in the data set with Fibroblast (12 h, replicate number 2); 0.5 in the data set on Fibroblast (18 h, replicate number 1). The “Growth Rate” value was found to be 0.54 with Fibroblast (18 h, replicate number 2); 0.45 in the data set with Fibroblast (24 h, replicate number 2); 0.66 in the data set on U2OS (0 h, replicate number 1); 0.2 in the data set with U2OS (6 h, replicate number 2); 0.72 in the data set with U2OS (12 h, replicate number 2); 0.89 in the data set with U2OS (18 h, replicate number 2). Further, the “Growth Rate” value came to 0.98 in the data set on U2OS (24 h, replicate number 1) and 0.79 in the data set on U2OS (24 h, replicate number 2).

As for `CP(C)(=O)c1ccc(CNC(=O)C2CCN(S(=O)(=O)c3cc(Cl)cc(Cl)c3)CC2)cc1`, the “Growth Rate” value in the data set with HEK-293T (12 h, replicate number 1) is given as 0.93; with HEK-293T (18 h, replicate number 1) it was 0.9; with HEK-293T (24 h, replicate number 1) it was 0.89; in the data set with Fibroblast (0 h, replicate number 2) it was -0.94; in the data set with U2OS (0 h, replicate number 1), 0.11; in the data set with U2OS (6 h, replicate number 1), 0.37. In addition, the “Growth Rate” value in the data set with U2OS (12 h, replicate number 1) was found to be 0.74; in the data set on U2OS (12 h, replicate number 2), 0.85; in the data set on U2OS (18 h, replicate number 1) it was 0.74; in the data set on U2OS (18 h, replicate number 2), 0.9; in the data set with U2OS (24 h, replicate number 1) it was 0.87; in the data set on U2OS (24 h, replicate number 2) it was 0.89.

Regarding `CN[C@@H](C)C(=O)N[C@H](C(=O)N1CCC[C@H]1C(=O)N[C@@H]1CCCc2ccccc21)C1CCCCC1.Cl`, the “Growth Rate” value in the data set on HEK-293T (0 h, replicate number 2) is -0.36; with HEK-293T (6 h, replicate number 2), 0.63; with HEK-293T (12 h, replicate number 1), 0.81; in the data set on HEK-293T (12 h, replicate number 2) it was 0.9; in the data set on HEK-293T (18 h, replicate number 2), 0.87; with HEK-293T (24 h, replicate number 2), 0.88. Also, the “Growth Rate” value in the data set on Fibroblast (12 h, replicate number 1) is listed as 0.76; in the data set on Fibroblast (12 h, replicate number 2), 0.89; in the data set on Fibroblast (18 h, replicate number 1) it was 0.75; in the data set with Fibroblast (24 h, replicate number 1) it was 0.72; in the data set on U2OS (0 h, replicate number 1) it was 0.24; in the data set with U2OS (6 h, replicate number 1) it was 0.97. In addition, the “Growth Rate” value with U2OS (12 h, replicate number 1) is reported as 0.89.

For `[2H]C([2H])([2H])NC(=O)c1nnc(NC(=O)C2CC2)cc1Nc1cccc(-c2ncn(C)n2)c1OC` [DEUCRAVACITINIB], the “Growth Rate” value in the data set with HEK-293T (0 h, replicate number 2) is 0.09; in the data set on HEK-293T (6 h, replicate number 1) it was 0.66; in the data set on HEK-293T (6 h, replicate number 2), 0.51; with HEK-293T (12 h, replicate number 1) it was 0.82; with HEK-293T (12 h, replicate number 2), 0.56; in the data set on HEK-293T (18 h, replicate number 1), 0.78. Also, the “Growth Rate” value was 0.68 in the data set with HEK-293T (18 h, replicate number 2); 0.85 in the data set on HEK-293T (24 h, replicate number 1); 0.76 in the data set on HEK-293T (24 h, replicate number 2); 0.51 with Fibroblast (0 h, replicate number 1); 0 in the data set on Fibroblast (0 h, replicate number 2); 0.85 in the data set with Fibroblast (18 h, replicate number 2). For the same compound, the “Growth Rate” value in the data set on Fibroblast (24 h, replicate number 2) worked out at 0.9; in the data set with U2OS (0 h, replicate number 1), 0.39; in the data set with U2OS (6 h, replicate number 1), 0.29; with U2OS (6 h, replicate number 2), 0.63; in the data set on U2OS (12 h, replicate number 1), 0.68; with U2OS (12 h, replicate number 2), 0.76. Moreover, the “Growth Rate” value in the data set with U2OS (18 h, replicate number 1) was found to be 0.89; with U2OS (18 h, replicate number 2), 0.71; in the data set on U2OS (24 h, replicate number 1), 0.97; in the data set on U2OS (24 h, replicate number 2), 0.74.

Consider `O=C(Cc1ccccc1)Nc1nnc(N2C[C@H]3C[C@@H]2CN3c2cccnn2)s1` [A-446], for which the “Growth Rate” value in the data set on HEK-293T (0 h, replicate number 1) is reported as 0.58; in the data set on HEK-293T (0 h, replicate number 2), -0.11; with HEK-293T (6 h, replicate number 2), 0.68; in the data set on HEK-293T (12 h, replicate number 1), 0.83; with HEK-293T (12 h, replicate number 2) it was 0.97; in the data set on HEK-293T (18 h, replicate number 2) it was 0.86. For the same compound, the “Growth Rate” value with HEK-293T (24 h, replicate number 1) was 0.93; in the data set with HEK-293T (24 h, replicate number 2), 0.94; with Fibroblast (0 h, replicate number 2), 0.67; in the data set with Fibroblast (6 h, replicate number 1), 0.15; in the data set with Fibroblast (6 h, replicate number 2) it was -0.04; with Fibroblast (12 h, replicate number 1), 0.45. In addition, the “Growth Rate” value is recorded as 0.18 in the data set with Fibroblast (12 h, replicate number 2); 0.27 in the data set on Fibroblast (18 h, replicate number 1); 0.19 in the data set on Fibroblast (18 h, replicate number 2); 0.33 with Fibroblast (24 h, replicate number 1); 0.04 in the data set on Fibroblast (24 h, replicate number 2); 0.34 with U2OS (0 h, replicate number 1). The “Growth Rate” value with U2OS (0 h, replicate number 2) was determined as 0.56; in the data set with U2OS (6 h, replicate number 1) it was 0.82; with U2OS (6 h, replicate number 2), 0.43; in the data set on U2OS (12 h, replicate number 1) it was 0.68; in the data set on U2OS (12 h, replicate number 2) it was 0.59; in the data set with U2OS (18 h, replicate number 1), 0.54. For the same compound, the “Growth Rate” value in the data set on U2OS (18 h, replicate number 2) stood at 0.8; in the data set on U2OS (24 h, replicate number 1), 0.87; with U2OS (24 h, replicate number 2), 0.77.

Take `CN1CCN(c2nc(C3=C(c4c[nH]c5ccccc45)C(=O)NC3=O)c3ccccc3n2)CC1` [SOTRASTAURIN]: the “Growth Rate” value in the data set on HEK-293T (0 h, replicate number 1) is -0.3; in the data set with HEK-293T (0 h, replicate number 2), -0.61; in the data set with Fibroblast (0 h, replicate number 2) it was -0.97; in the data set on Fibroblast (6 h, replicate number 1), -0.88; in the data set with Fibroblast (12 h, replicate number 1) it was -1; in the data set with U2OS (0 h, replicate number 1), -0.78. Besides, in the data set on U2OS (0 h, replicate number 2), the “Growth Rate” value is -0.29.

Consider `CO[C@@H](C)CN1CC[C@]2(C)c3cc(O)ccc3C[C@H]1C2(C)C.Cl`, for which the “Growth Rate” value in the data set on HEK-293T (0 h, replicate number 2) is listed as 0.15; in the data set on Fibroblast (0 h, replicate number 1) it was -1; in the data set with Fibroblast (0 h, replicate number 2) it was -0.8; with Fibroblast (6 h, replicate number 1), 0.93; in the data set on Fibroblast (12 h, replicate number 2), 0.89; in the data set with Fibroblast (18 h, replicate number 1), 1. Also, the “Growth Rate” value in the data set with U2OS (0 h, replicate number 1) turned out to be 0.91; with U2OS (6 h, replicate number 1), 0.69; with U2OS (6 h, replicate number 2), 0.47; in the data set with U2OS (12 h, replicate number 1), 0.82.

For the compound `Cl.O=c1cc(C2CCNCC2)n2nc3cccc(Cl)c3c2[nH]1`, the “Growth Rate” value is -0.29 in the data set on HEK-293T (0 h, replicate number 1); -0.61 in the data set with HEK-293T (0 h, replicate number 2); 0.58 in the data set with HEK-293T (12 h, replicate number 2); 0.96 with HEK-293T (18 h, replicate number 2); 0.91 in the data set with HEK-293T (24 h, replicate number 2); -0.94 in the data set with Fibroblast (0 h, replicate number 1). Further, the “Growth Rate” value in the data set with Fibroblast (0 h, replicate number 2) is -0.98; with U2OS (0 h, replicate number 1) it was 0.61; in the data set with U2OS (6 h, replicate number 1) it was 0.98; in the data set on U2OS (12 h, replicate number 2), 1; in the data set on U2OS (18 h, replicate number 1), 0.98.

Turning to `CCC(F)(F)c1cc(N2CCC(S(C)(=O)=O)CC2)nc2sc(C(N)=O)c(N)c12` [BI-605906], the “Growth Rate” value in the data set on HEK-293T (0 h, replicate number 1) was -0.07; in the data set on HEK-293T (6 h, replicate number 1), 0.34 and 0.47; in the data set on HEK-293T (6 h, replicate number 2) it was 0.83 and 0.48; with HEK-293T (12 h, replicate number 1) it was 0.79 and 0.84; in the data set on HEK-293T (12 h, replicate number 2), 0.72; in the data set on HEK-293T (18 h, replicate number 1), 0.74 and 0.73. Further, the “Growth Rate” value with HEK-293T (18 h, replicate number 2) was 0.97 and 0.85; in the data set on HEK-293T (24 h, replicate number 1) it was 0.98; in the data set with HEK-293T (24 h, replicate number 2), 0.91; in the data set with Fibroblast (0 h, replicate number 1) it was 0.11; with Fibroblast (0 h, replicate number 2) it was 0.48; in the data set with Fibroblast (6 h, replicate number 1) it was 0.8. For the same compound, the “Growth Rate” value in the data set with Fibroblast (6 h, replicate number 2) is 0.76 and 0.88; with Fibroblast (12 h, replicate number 1) it was 0.8; in the data set on Fibroblast (12 h, replicate number 2), 0.85 and 0.57 and 0.87; in the data set on Fibroblast (18 h, replicate number 1), 0.99; in the data set with Fibroblast (24 h, replicate number 1), 0.9 and 0.91; with Fibroblast (24 h, replicate number 2), 0.97 and 0.94. Further, the “Growth Rate” value in the data set with U2OS (6 h, replicate number 1) is listed as 0.71; in the data set with U2OS (12 h, replicate number 2) it was -0.82; in the data set with U2OS (18 h, replicate number 1) it was 0.91; with U2OS (18 h, replicate number 2) it was 0.92; in the data set on U2OS (24 h, replicate number 1), 0.96; in the data set on U2OS (24 h, replicate number 2), 0.9.
